Assays:
T3R-RXR heterodimers = target: T1, T3R-RXR heterodimers (Homo sapiens, UniProt P10828+P19793); experiment: Transient transfection analysis of T3R-RXR heterodimers (TK-LUC reporter, CV-1 cells); type: cell-based
T1 construct: transient transfection analysis of full-length Nurrl and/or RXR; expressed in transfected cells; host or cells: CV-1
T1 sequence (P10828 1-461): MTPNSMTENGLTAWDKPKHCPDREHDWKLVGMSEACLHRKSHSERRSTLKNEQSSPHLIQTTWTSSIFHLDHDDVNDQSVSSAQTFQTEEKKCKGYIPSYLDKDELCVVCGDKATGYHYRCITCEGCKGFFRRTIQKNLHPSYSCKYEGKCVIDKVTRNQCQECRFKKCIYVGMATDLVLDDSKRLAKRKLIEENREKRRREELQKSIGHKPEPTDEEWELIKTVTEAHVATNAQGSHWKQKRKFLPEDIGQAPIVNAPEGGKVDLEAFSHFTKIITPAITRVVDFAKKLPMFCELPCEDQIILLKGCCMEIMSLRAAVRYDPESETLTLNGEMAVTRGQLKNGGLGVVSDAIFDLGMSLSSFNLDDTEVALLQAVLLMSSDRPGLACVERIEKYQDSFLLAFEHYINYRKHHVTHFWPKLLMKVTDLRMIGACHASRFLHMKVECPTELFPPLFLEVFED
T1 sequence (P19793 1-462): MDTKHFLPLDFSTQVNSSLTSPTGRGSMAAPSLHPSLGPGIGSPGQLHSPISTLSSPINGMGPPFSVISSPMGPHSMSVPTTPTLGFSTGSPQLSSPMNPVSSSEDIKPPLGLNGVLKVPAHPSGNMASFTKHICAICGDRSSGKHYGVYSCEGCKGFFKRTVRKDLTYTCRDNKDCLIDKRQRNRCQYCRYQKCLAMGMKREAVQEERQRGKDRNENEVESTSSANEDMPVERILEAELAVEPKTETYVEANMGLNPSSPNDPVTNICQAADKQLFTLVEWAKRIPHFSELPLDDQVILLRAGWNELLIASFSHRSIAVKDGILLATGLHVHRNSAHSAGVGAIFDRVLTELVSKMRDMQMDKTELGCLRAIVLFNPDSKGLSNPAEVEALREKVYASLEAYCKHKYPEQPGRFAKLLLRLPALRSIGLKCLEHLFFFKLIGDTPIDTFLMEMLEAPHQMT
Experimental: (§1) One day prior to transfection, cells were plated to 50-80% confluence using phenol-red free DMEM-FBS. Cells were transfected by lipofection using N-{2-(2,3)-dioleoyloxy)propyl-N,N,N-trimethyl ammonium methyl sulfate} according to the manufacturer's instructions (DOTAP, Boehringer Mannheim).
Since T3R and RAR function as heterodimers with RXR, RXR responsiveness was examined in the context of RXR-T3R and RXR-RAR heterodimers. Attention is directed to FIG. 2, wherein transient transfection analysis of T^3R-RXR and RAR-RXR heterodimers is described. Reporter constructs employed contain the HRE indicated in the figure, cloned upstream of the TK-LUC reporter. In the left panel of the figure, CV-1 cells were transfected with the following plasmids: HRE×2 - TK-LUC (300 ng/10^5 cells), CMX-hT3Rβ (20 ng/10^5 cells), CMX-hRXRα (20 ng/10^5 cells) and the internal control CMX-βgal (500 ng/10^5 cells) .

RAR-RXR heterodimers = target: T2, RAR-RXR heterodimers (Homo sapiens, UniProt P10276+P19793); experiment: Transient transfection analysis of RAR-RXR heterodimers (TK-LUC reporter, CV-1 cells); type: cell-based
T2 construct: transient transfection analysis of full-length Nurrl and/or RXR; expressed in transfected cells; host or cells: CV-1
T2 sequence (P10276 1-462): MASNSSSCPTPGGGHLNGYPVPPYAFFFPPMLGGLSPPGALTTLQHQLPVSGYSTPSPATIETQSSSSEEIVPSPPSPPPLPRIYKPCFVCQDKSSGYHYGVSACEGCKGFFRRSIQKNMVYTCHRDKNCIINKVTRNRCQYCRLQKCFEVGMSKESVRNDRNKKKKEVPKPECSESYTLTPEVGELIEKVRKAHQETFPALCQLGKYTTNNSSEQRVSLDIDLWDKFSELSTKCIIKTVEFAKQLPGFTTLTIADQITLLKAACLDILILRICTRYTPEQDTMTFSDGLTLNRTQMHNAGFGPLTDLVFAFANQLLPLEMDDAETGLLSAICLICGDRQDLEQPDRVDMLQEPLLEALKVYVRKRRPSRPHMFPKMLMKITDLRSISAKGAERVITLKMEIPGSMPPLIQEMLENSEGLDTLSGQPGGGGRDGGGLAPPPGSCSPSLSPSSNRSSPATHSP
T2 sequence (P19793 1-462): T1 sequence (P19793 1-462)
Experimental: as §1
In the right panel of FIG. 2, cells were transfected with HRE×1 TK-LUC (300 ng/10^5 cells), CMX-hRARα (50 ng/10^5 cells) CMX-hRXRα (50 ng/10^5 cells) and CMX-βgal (500 ng/10^5 cells) . […] Normalized luciferase activity was determined and plotted as fold-activation relative to untreated cells.

GST-hRXRα = target: T3, GST-hRXRα (Homo sapiens, UniProt P19793); experiment: Ligand binding assay with GST-RXR (glutathione-sepharose); settings: 50 nM [3H] LG69; 2 μM unlabeled ligand
T3 construct: made in house
T3 sequence (P19793 1-462): T1 sequence (P19793 1-462)

[1] = target: T4, Nurrl-RXR heterodimer complex (Homo sapiens, UniProt P19793); experiment: Transient transfection of full-length Nurrl and RXR on NBRE x3 TK-LUC; type: cell-based, mouse Nurrl, human RXRα
T4 construct: transient transfection analysis of full-length Nurrl and/or RXR; expressed in transfected cells; host or cells: CV-1
Experimental: as §1
Thus, CV-1 cells were tranfected with NBRE×3 TK-LUC (300 ng/10^5 cells) , CMX-βgal (500 ng/10^5 cells), alone or with CMX-Nurrl (100 ng/10^5 cells) and CMX-hRXRα (100 ng/10^5 cells) as indicated in FIG. 7B. Following transfection, cells were treated with or without 100 nM LG69. Normalized luciferase activity was determined and plotted as reporter activity.
Using sub-optimal amounts of RXR-expression vector, the CRBPII reporter was compared with a 3-copy NBRE reporter as follows. Cells were transfected as described with respect to FIG. 7B, but with a 5-fold lower amount of CMX-hRXRα (20 ng/10^5 cells). CRBPII TK-LUC (300 ng/10^5 cells) was used where indicated.

T4 sequence (Q06219 whole entry partner, one chain of several): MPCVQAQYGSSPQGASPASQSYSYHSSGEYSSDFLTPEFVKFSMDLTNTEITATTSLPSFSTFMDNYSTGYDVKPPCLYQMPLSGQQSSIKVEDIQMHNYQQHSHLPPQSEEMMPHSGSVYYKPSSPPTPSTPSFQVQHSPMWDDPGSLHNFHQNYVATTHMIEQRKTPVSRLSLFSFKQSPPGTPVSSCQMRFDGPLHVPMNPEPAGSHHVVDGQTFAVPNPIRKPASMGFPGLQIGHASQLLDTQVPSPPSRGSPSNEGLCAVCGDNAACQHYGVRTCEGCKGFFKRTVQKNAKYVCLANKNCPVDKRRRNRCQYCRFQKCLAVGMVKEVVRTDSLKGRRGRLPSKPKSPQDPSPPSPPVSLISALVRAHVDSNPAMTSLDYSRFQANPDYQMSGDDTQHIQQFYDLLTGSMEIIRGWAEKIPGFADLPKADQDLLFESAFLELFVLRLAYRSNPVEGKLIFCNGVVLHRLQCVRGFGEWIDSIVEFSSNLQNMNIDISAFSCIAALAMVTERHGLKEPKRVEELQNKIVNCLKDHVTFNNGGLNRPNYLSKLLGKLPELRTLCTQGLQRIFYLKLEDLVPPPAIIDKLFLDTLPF

For `CC=C(c1ccc(C(=O)O)cc1)c1cc2c(cc1C)C(C)(C)CCC2(C)C` [LG69, 4-{1-(3,5,5,8,8-pentamethyl-5,6,7,8-tetrahydro-2-napthalenyl)-1-propenyl}benzoic acid], the “effect of LG69 added to T3 on the response to T3” value (T3R-RXR heterodimers; 100 nM T3+100 nM LG69 versus T3 alone) was “somewhat reduced”, the “responsiveness of transfected cells to ligand (luciferase fold-activation)” value (T3R-RXR heterodimers; CV-1 cells transfected with T3Rβ and RXRα, 100 nM T3 or 100 nM LG69) was “not responsive” and the “transcriptional activity with Am580+LG69 over that seen with AM580 alone” value (RAR-RXR heterodimers; 50 nM Am580+100 nM LG69, full-length receptors) was “increased transcriptional activity”. The “responsiveness of transfected cells to ligand (luciferase fold-activation)” value (RAR-RXR heterodimers; CV-1 cells transfected with RARα and RXRα, 50 nM Am580 or 100 nM LG69) was “unresponsive”, the “competition of [3H] LG69 binding to GST-RXR by unlabeled ligand” value (GST-hRXRα) was “specifically completed” and the “responsiveness of the Nurrl-RXR complex” value ([1]; Nurrl and RXR co-expressed, NBRE reporter) was “strongly responsive”. The “response of Nurrl-RXR on NBRE reporter” value ([1]; limiting RXR (20 ng/10^5 cells)) was “potent response”.

Reference: patent US20030083469A1, “Allosteric control of nuclear hormone receptors” (The Salk Institute for Biological Studies, priority 1995, published 2003)
